Laboratory results reported in publication PMC9925730, “Controlled sequential in situ self-assembly and disassembly of a fluorogenic cisplatin prodrug for cancer theranostics” (Nature Communications, 2023).
Values joined by “and” are separate entries in the source; they are usually repeats but may differ in a detail not shown here. Equal values may be shown once. “Also recorded” adds a separate entry of the source. Read-outs that look alike come from different tables or passages of the source.

What was measured:
[1] = Body weight of mice with orthotopic HepG2/Luc liver tumors; type: in vivo; conditions: individual samples, in g (unit assumed)
[2] = test system: orthotopic HepG2/Luc liver tumors; experiment: Chemotherapy of orthotopic liver tumors (BL imaging, ex vivo BL and FL imaging); type: in vivo, mice;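 also: bioluminescence quantified by ROI over liver region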
HepG2 cells = experiment: Cytotoxicity, MTT assay; type: cell-based, human; design: key to cell viability, mean: % viability = OD / OD of untreated control
Procedure: HeLa cells were seeded on flat-bottomed 96-well plates (5000 cells per well) and incubated at 37 °C overnight. Varying concentrations of P-CyPt, Pt^IVNPs or CDDP (0, 1, 2, 5, 10, 20, 30, 50, 100, and 200 μM) in DMEM medium (100 μL) were added. Cells were either incubated for 48 h, or firstly incubated with these three compounds for 2 h, washed with PBS and then incubated with refreshed blank DMEM medium for another 48 h. Then, 3-(4,5)-dimethylthiahiazo (-z-y1)−3,5-di-phenytetrazoliumromide (MTT, 50 μL, 1 mg /mL in PBS) was added into each well. The cells were kept at 37 °C for 4 h, and the solution in each well was carefully removed, followed by addition of dimethyl sulfoxide (DMSO, 150 μL). The absorbance (OD) at 490 nm in each well was acquired on the microplate reader (Tcan). The absorbance of non-treated blank cells (OD control) was used as the control. The percentage of cell viability was calculated by dividing OD to the OD control. […]
Supplementary Table 4. The IC50 (μM) value of different Pt drugs toward HeLa, HepG2 and HEK-293T cells.a
Compounds Condition IC50 (μM) HeLa HepG2 HEK-293T […]
a The IC50 values were measured by the MTT assay. Values denote mean ± s.d. (n = 3 independent experiments). b Cells were incubated with varying concentrations of CDDP, P-CyPt or PtIVNPs for […]
c Cells were incubated with varying concentrations of CDDP, P-CyPt or PtIVNPs for 2 h, and the mediums were removed, washed with PBS. Blank culture mediums were added, and the cells were kept incubation for another 48 h.

[3] = Side toxicity in s.c. HeLa tumor-bearing mice (body weight, BUN, CRE, H&E); conditions: for body weight during treatment: 2.25 mg kg^−1 Pt i.v. x5, 21 days; for increase of blood urea nitrogen (BUN) level / increase of creatinine (CRE) level: day 21
[4] = Urine and faeces analysis by HPLC (mCy-containing compounds); type: in vivo; conditions: Time period 8-12 h; individual mice
[5] = 2.25 mg kg^−1 Pt i.v. day 0, 3, 6, 9, 12, day 3
[6] = HepG-2, 2+48 h, individual samples, read-out: IC50-2+48h
[7] = HepG-2, 2+48 h, mean of 3 samples, read-out: IC50-2+48h
[8] = Supplementary Fig. 23 (b), concentration 1 μM
[9] = Supplementary Fig. 23 (b), concentration 2 μM
[10] = Supplementary Fig. 23 (b), concentration 5 μM
[11] = Supplementary Fig. 23 (b), concentration 10 μM
[12] = Supplementary Fig. 23 (b), concentration 20 μM
[13] = Supplementary Fig. 23 (b), concentration 30 μM
[14] = Supplementary Fig. 23 (b), concentration 50 μM
[15] = Supplementary Fig. 23 (b), concentration 100 μM
[16] = Supplementary Fig. 23 (b), concentration 200 μM
[17] = Supplementary Fig. 23 (b), read-out: IC50
[18] = Supplementary Fig. 24 (b), concentration 1 μM
[19] = Supplementary Fig. 24 (b), concentration 2 μM
[20] = Supplementary Fig. 24 (b), concentration 5 μM
[21] = Supplementary Fig. 24 (b), concentration 10 μM
[22] = Supplementary Fig. 24 (b), concentration 20 μM
[23] = Supplementary Fig. 24 (b), concentration 30 μM
[24] = Supplementary Fig. 24 (b), concentration 50 μM
[25] = Supplementary Fig. 24 (b), concentration 100 μM
[26] = Supplementary Fig. 24 (b), concentration 200 μM
[27] = Supplementary Fig. 24 (b), read-out: IC50
[28] = incubated 2 h, then blank medium 48 h, MTT, read-out: IC50 HepG2
[29] = incubated 48 h, MTT, read-out: IC50 HepG2

[NH2][Pt]([NH2])([Cl])[Cl] [CDDP, cisplatin]
Body weight of mice (Supplementary Fig. 34) ([1]; time 0 d): 19.83 and 20.11 and 22.01 | Body weight of mice (Supplementary Fig. 34) ([1]; time 3 d): 18.72 and 20.66 and 21.22 | Body weight of mice (Supplementary Fig. 34) ([1]; time 6 d): 17.7 and 19.43 and 21.14 | Body weight of mice (Supplementary Fig. 34) ([1]; time 9 d): 17.17 and 18.45 and 20.33 | Body weight of mice (Supplementary Fig. 34) ([1]; time 12 d): 16.32 and 17.76 and 19.54 | Body weight of mice (Supplementary Fig. 34) ([1]; time 15 d): 16.24 and 17.17 and 19.09 | tumor BL intensity of liver [2, 5]: 88767.5 | tumor BL intensity of liver ([2]; day 6): 201697.5 | tumor BL intensity of liver ([2]; day 9): 375850.0 | tumor BL intensity of liver ([2]; day 12): 589375.0 | IC50 (HepG2 cells; [6]): > 200 µM | IC50 (HepG2 cells; [7]): > 200 µM | cell viability, mean (HepG2 cells; [8]): 95.3204 | cell viability, mean (HepG2 cells; [9]): 89.9797 | cell viability, mean (HepG2 cells; [10]): 77.7747 | cell viability, mean (HepG2 cells; [11]): 61.9896 | cell viability, mean (HepG2 cells; [12]): 45.1643 | cell viability, mean (HepG2 cells; [13]): 34.2775 | cell viability, mean (HepG2 cells; [14]): 23.521 | cell viability, mean (HepG2 cells; [15]): 12.914 | cell viability, mean (HepG2 cells; [16]): 8.323 | IC50 (HepG2 cells; [17]): 16.3 µM | cell viability, mean (HepG2 cells; [18]): 97.7401 | cell viability, mean (HepG2 cells; [19]): 96.3386 | cell viability, mean (HepG2 cells; [20]): 94.9498 | cell viability, mean (HepG2 cells; [21]): 92.0343 | cell viability, mean (HepG2 cells; [22]): 89.3937 | cell viability, mean (HepG2 cells; [23]): 84.3715 | cell viability, mean (HepG2 cells; [24]): 79.6906 | cell viability, mean (HepG2 cells; [25]): 74.3564 | cell viability, mean (HepG2 cells; [26]): 60.8897 | IC50 (HepG2 cells; [27]): > 200 µM | IC50 (HepG2 cells; [28]): > 200 µM | IC50 (HepG2 cells; [29]): 16.3 ± 1.69 µM | body weight during treatment [3]: obviously decreased | increase of blood urea nitrogen (BUN) level [3]: ~ 1.6 fold | increase of creatinine (CRE) level [3]: ~ 1.4 fold

CC1(C)C(/C=C/C2=C3Oc4cc(O)c(Cl)cc4C=C3CCC2)=[N+](CCCNC(=O)[C@@H](Cc2ccccc2)NC(=O)[C@@H](Cc2ccccc2)NC(=O)CCC(=O)[O][Pt]([NH2])([NH2])([OH])([Cl])[Cl])c2ccccc21 [CyPt]
Compound found in excreta (%), Supplementary Table S5 [4]: 0% | Compound found in excreta (%), Supplementary Table S6 [4]: 0.6127% and 0.8857% and 0.7667% | Compound found in excreta (%), Supplementary Table S7 [4]: 0.79% and 1.63% and 1.075%

CC1(C)C(/C=C/C2=C3Oc4cc(OP(=O)(O)O)c(Cl)cc4C=C3CCC2)=[N+](CCCNC(=O)[C@@H](Cc2ccccc2)NC(=O)[C@@H](Cc2ccccc2)NC(=O)CCC(=O)[O][Pt]([NH2])([NH2])([OH])([Cl])[Cl])c2ccccc21 [P-CyPt]
Body weight of mice (Supplementary Fig. 34) ([1]; time 0 d): 18.59 and 19.8 and 19.81 | Body weight of mice (Supplementary Fig. 34) ([1]; time 3 d): 18.83 and 19.54 and 20.74 | Body weight of mice (Supplementary Fig. 34) ([1]; time 6 d): 17.51 and 20.1 and 20.66 | Body weight of mice (Supplementary Fig. 34) ([1]; time 9 d): 18.1 and 20.43 and 20.94 | Body weight of mice (Supplementary Fig. 34) ([1]; time 12 d): 19.14 and 19.19 and 21.74 | Body weight of mice (Supplementary Fig. 34) ([1]; time 15 d): 19.31 and 19.45 and 21.01 | tumor BL intensity of liver [2, 5]: 2725.3 | tumor BL intensity of liver ([2]; day 6): 3155.3 | tumor BL intensity of liver ([2]; day 9): 3616.5 | tumor BL intensity of liver ([2]; day 12): 6594.0 | IC50 (HepG2 cells; [6]): 20.2 µM and 17.1 µM (2×) | IC50 (HepG2 cells; [7]): 18.1 µM | IC50 (HepG2 cells; HepG-2, 48 h, individual samples, read-out: IC50-48h): 9.3 µM and 10.5 µM and 11 µM | cell viability, mean (HepG2 cells; [8]): 92.0846 | cell viability, mean (HepG2 cells; [9]): 82.2394 | cell viability, mean (HepG2 cells; [10]): 69.0701 | cell viability, mean (HepG2 cells; [11]): 51.1783 | cell viability, mean (HepG2 cells; [12]): 33.5308 | cell viability, mean (HepG2 cells; [13]): 23.4253 | cell viability, mean (HepG2 cells; [14]): 15.7997 | cell viability, mean (HepG2 cells; [15]): 10.0234 | cell viability, mean (HepG2 cells; [16]): 7.08 | IC50 (HepG2 cells; [17]): 10.3 µM | cell viability, mean (HepG2 cells; [18]): 95.0066 | cell viability, mean (HepG2 cells; [19]): 86.4416 | cell viability, mean (HepG2 cells; [20]): 75.7976 | cell viability, mean (HepG2 cells; [21]): 64.0113 | cell viability, mean (HepG2 cells; [22]): 47.6001 | cell viability, mean (HepG2 cells; [23]): 36.5665 | cell viability, mean (HepG2 cells; [24]): 27.7515 | cell viability, mean (HepG2 cells; [25]): 19.0319 | cell viability, mean (HepG2 cells; [26]): 12.1606 | IC50 (HepG2 cells; [27]): 18.1 µM | IC50 (HepG2 cells; [28]): 18.1 ± 1.78 µM | IC50 (HepG2 cells; [29]): 10.3 ± 0.87 µM | body weight during treatment [3]: similar | increase of blood urea nitrogen (BUN) level [3]: not obviously upregulated | increase of creatinine (CRE) level [3]: not obviously upregulated | H&E staining of major organs (side toxicity) ([3]; day 21 after 5 doses of 2.25 mg kg^−1 Pt): all organs looked normal; also recorded: no apparent cell death | Compound found in excreta (%), Supplementary Table S5 [4]: 1.424% and 1.642% and 1.178% | Compound found in excreta (%), Supplementary Table S6 [4]: 0.04756% and 0.06874% and 0.05951%
